From patent US7829529B2, “Use of factor VIIa or a tissue factor antagonist for regulating gene expression and cell migration or chemotaxis” (Novo Nordisk Health Care A/G, priority 1999, dated 2010)
Entries after “also recorded” stand apart in the source; their conditions may differ. Starred links: 1 amine or outer side, 2 acyl side, 3 side chain; linkers in the order of their positions; H or OH if unused. Positions of bridges follow the written chain, without caps; N, C: chain ends. Non-standard residues stand in square brackets, D forms with d. Residues, ends and D or L forms follow the SMILES beside them. Chains are numbered I, II in the order given. Actinocin(9to1) = Cc1c2oc3c(C)ccc(C(=O)[*:1])c3nc-2c(C(=O)[*:2])c(N)c1=O; NMeV = CN[C@H](C(=O)O)C(C)C; Sar = CNCC(=O)O

Legend:
[1] = system: Cyr61 mRNA in WI-38 cells; assay: Northern blot analysis of Cyr61 expression; assay type: cell-based, human; settings: for effect on VIIa-induced expression of Cyr61: 30 min preincubation, then VIIa 5 μg/ml 45 min, TAP 200 nM, actinomycin D and cycloheximide 10 μg/ml
Method: Northern Blot Analysis. Total RNA was prepared using TRIZOL reagent from quiescent monolayer of WI-38 cells that were exposed to VIIa and other materials as described in Results. Northern blot analysis was carried out using standard procedure. Briefly, 10 μg of total RNA was size fractionated by gel electrophoresis in 1% agarose/6% formaldehyde gels and transferred onto the nitrocellulose membrane by a capillary blot method. Northern blots were prehybridized at 42° C. with a solution containing 50% formamide, 5×SSC, 50 mM Tris.HCl, pH 7.5, 0.1% sodium pyrophosphate, 1% SDS, 1% polyvinylpyrrolidone, 1% Ficoll, 25 mM EDTA, 100 μg/ml denatured salmon sperm DNA and 1% BSA and hybridized with ^32P-labeled Cyr61 cDNA probe (106 cpm/ml). The hybridized membranes were exposed to either Dupont NEF or Fuji RX X-ray film. For quantification purposes, the membranes were exposed to phosphor screen for 1 to 4 h, and the exposed screens were analyzed in a Phosphorlmger (Molecular Dynamics) using “Image-quant” software. To obtain mean values, the units (counts) obtained from different experiments were normalized to an internal control (counts present in control-treated sample).
Confirmation of differential expression of Cyr61. To validate the data obtained in microarray, we have patiented the RNA samples from the control and VIIa-treated cells (the same RNA samples that have been used to prepare poly (A) RNA for probe generation in the microarray) to Northern blot analysis and probed with radiolabeled Cyr61 cDNA. […] However, the intensity of hybridization signal was much higher in RNA isolated from VIIa-treated cells (FIG. 11).
Kinetics of Vila-induced expression of Cyr61. To determine the kinetics of Cyr61 expression, quiescent fibroblasts were treated for varying time periods with 5 μg/ml VIIa. Total RNA was extracted and patiented to Northern blot analysis. […] The expression was peaked at about 45 min and thereafter declined to the base level in 2 to 3 h. Since it had been reported that expression of Cyr61 in mouse fibroblasts after stimulation with serum and growth factor was sustained for several hours (up to 8 to 10 h) before repression occurs, we have examined the effect of serum and PDGF on kinetics of Cyr61 expression in quiescent human fibroblasts, WI-38. […] Similar results obtained with serum-induced expression of Cyr61 (data not shown).
Factor VIIa-dose dependent induced expression of Cyr61. To determine dose-dependency of VIIa, quiescent fibroblasts were treated with varying doses FVIIa (0.1 to 5 μg/ml) for 45 min and then total RNA samples from the cells were patiented to Northern blot analysis.
Factor VIIa-catalytic activity is required for Cyr61 induction. To test whether VIIa catalytic activity is required for the induction of Cyr61, WI-38 cells were treated with VIIa and active-site inactivated FVIIa (FVIIai) for 45 min and the expression of Cyr61 was evaluated by Northern blot analysis. […] It is unlikely that VIIa-induced expression of Cyr61 in our experiments was the result of generation of down-stream coagulation factors, FXa and thrombin.
Involvement of transcriptional mechanism for the induction of Cyr61 mMRNA steady-state levels by VIIa. To investigate whether transcription is involved in VIIa-mediated increase in Cyr61 mRNA steady-state levels, quiescent WI-38 cells were incubated with actinomycin-D (10 μg/ml) for 30 min before the addition of VIIa for 45 min. […] This finding indicates a transcriptional mechanism for induction of Cyr61.
To investigate whether de novo protein synthesis is required for the induction of Cyr61 nRNA by VIIa, WI-38 cells were pretreated with the protein synthesis inhibitor cycloheximide before the cells were exposed to VIIa for 45 min.

[2] = system: Human foreskin fibroblasts AG1523; assay: Chemotaxis assay, leading front technique in modified Boyden chamber, towards PDGF-BB; assay type: cell-based; settings: for effect on FVIIa/TF-mediated chemotactic response to PDGF-BB: 30 min pretreatment; for effect on enhanced migration response (hyperchemotaxis) transduced by FVIIa/TF: TAP 0.2-10 μM, Hirudin 5 U/ml; for effect on migration of fibroblasts in response to PDGF without FVIIa: no FVIIa present
Method: Fibroblasts expressing active TF (FIG. 1A and FIG. 1B) were incubated with 100 nM of FVIIa and seeded in the upper part of the modified Boyden chamber; while media containing 10% FBS and PDGF-BB at different concentrations were added below the 150 μm micropore filter. The migration of the cells under conditions where medium containing 10% FBS without PDGF-BB was added below the filter was used as a measure of random migration, and calculated as 100% migration. A significant migration response was recorded at a concentration of 0.01 ng/ml PDGF-BB in cells stimulated by FVIIa compared to 1 ng/ml PDGF-BB for cells not ligated with FVIIa, i.e. a 100-fold difference in concentration (FIG. 2). At 0.01-0.1 ng/ml PDGF-BB the migration response to FVIIa increased dose dependently, starting at 25 nM and with a maximal effect at 50-100 nM FVIIa (FIG. 3A-D). […] To test whether the proteolytically active FVIIa was mandatory for the hyperchemotactic response to PDGF-BB, fibroblasts were also incubated with 100 nM FFR-FVIIa and assayed in the Boyden chamber in the same way (FIG. 2).
An irrelevant monoclonal IgG antibody did neither prevent hyperchemotaxis induced by FVIIa nor the inhibition of the migration response induced by FFR-FVIIa (data not shown).
Chemotaxis assay. The migration response of fibroblasts was assayed by means of the leading front technique in a modified Boyden chamber, as previously described (Siegbahn, A., Hanimacher, A., Westermark, B., Heldin, C-H. Differential effects of the various isoforms of platelet-derived growth factor on chemotaxis of fibroblasts, monocytes, and granulocytes. J. Clin. Invest. 85, 916-920 (1990) and Nistér, M., Hammacher, A., Mellström, K., Siegbahn, A., Rönnstrand, L., Westermark, B., Heldin, C-H. A glioma-derived PDGF A chain homodimer has different functional activities from a PDGF AB heterodimer purified from human platelets. Cell 52, 791-799 (1988)). Micropore filters (pore size 8 μm) were coated with a solution of type-1 collagen at room temperature over night. The filters were air dried for 30 minutes immediately before use. Human foreskin fibroblasts AG1523, were grown to confluence in Eagle's MEM supplemented with 10% FBS. The cells were detached by trypsinization (2.5 mg/ml for 10 minutes at 37° C.) and suspended in Eagle's MEM with 10% FBS. The fibroblasts were incubated for 10 minutes with or without FVIIa or FFR-FVIIa before assay. One hundred microliters of the cell suspension (2×10^5 cells/ml) was added above the filter of the Boyden chamber. PDGF-BB was diluted in assay media (Eagle's MEM with 10% FBS) and added below the filter in the chamber. The cells were incubated for 6 hours at 37° C. in a humidified chamber containing 95% air/5% CO2. FVIIa or FFR-FVIIa were present during the entire experiment. The filters were then removed, fixed in ethanol, stained with Mayer's Hemalun, and mounted. Migration was measured as the distance of the two furthest migrating fibroblast nuclei of one high-power field (12.5×24) in focus. The migration distance in each filter was calculated as the mean of the readings of at least three different parts of the filter. Experiments were performed with two to four separate filters for each concentration of chemoattractant. For each set of experiments, the migration of fibroblasts toward the assay media served as control.
In cases when anti-TF monoclonal antibodies or inhibitors to coagulation factors, TAP and Hirudin, were used, cells were preincubated for 10 minutes with these agents, then with or without FVIIa or FFR-FVIIa before the chemotaxis assay was performed. Antibodies, TAP or Hirudin were also present during the entire chemotaxis experiment. In experiments where the effects on the migration response of different inhibitors, LY294002, U73122 or U73343, were tested, cells were preincubated for 30 minutes with the inhibitors at indicated concentrations, and the inhibitors were also present throughout the experiments.

[3] = system: PLC-γ1 in AG1518 fibroblasts; assay: Assay for agonist-induced PLC-γ1 tyrosine phosphorylation; assay type: cell-based, human; settings: 100 nM FVIIa or FFR-FVIIa one hour; PDGF-BB 2, 10 or 100 ng/ml 5 minutes
Method: In order to determine whether the PLC-γ1 isoform, which is activated by certain tyrosine kinase receptors, was responsible for the increased PLC activity induced by FVIIa/TF, tyrosine phosphorylation of PLC-γ1 was studied. Fibroblasts were incubated in the absence or presence of 100 nM FVIIa or FFR-FVIIa for one hour, followed by the stimulation with 0, 2, 10 or 100 ng/ml PDGF-BB. After 5 minutes of incubation, the cells were lysed and PLC-γ1 was immunoprecipitated, separated by SDS-PAGE and immunoblotted with antiphosphotyrosine antibodies. […] Thus, other PLC isoforms than PLC-γ1 are responsible for the increased PLC activity after FVIIa stimulation.
Assay for agonist-induced PLC-γ1 phosphorylation. Semi-confluent cultures of AG1518 were serum starved overnight (approx. 20 hours) in medium containing 0.1% FBS, and then incubated in the absence or presence of 100 nM FVIIa or FFR-FVIIa for one hour followed by incubation with 0, 2, 10 or 100 ng/ml PDGF-BB for 5 minutes at 37° C. […]

[4] = 100 nM FVIIa, 0.1 ng/ml PDGF-BB

In the case of `Cc1c2oc3c(C)ccc(C(=O)N[C@@H]4C(=O)N[C@H](C(C)C)C(=O)N5CCC[C@H]5C(=O)N(C)CC(=O)N(C)[C@@H](C(C)C)C(=O)O[C@@H]4C)c3nc-2c(C(=O)N[C@@H]2C(=O)N[C@H](C(C)C)C(=O)N3CCC[C@H]3C(=O)N(C)CC(=O)N(C)[C@@H](C(C)C)C(=O)O[C@@H]2C)c(N)c1=O` [actinomycin-D] (I: T[dV]P[Sar][NMeV] / II: T[dV]P[Sar][NMeV]; ester I:1-I:C, II:1-II:C; linker I:N-II:N via Actinocin(9to1)), the “effect on VIIa-induced expression of Cyr61” value (“effect … of Cyr61” for short) [1] is reported as “inhibited the stimulator effect of VIIa”.

In the case of `COc1ccc2c(c1)CC[C@@H]1[C@@H]2CC[C@]2(C)[C@@H](NCCCCCCN3C(=O)C=CC3=O)CC[C@@H]12` [U73122], the “concentration giving total inhibition of the hyperchemotactic response” value [2, 4] is reported as 1 µM and the “effect on FVIIa/TF-mediated chemotactic response to PDGF-BB” value [2, 4] is reported as “inhibited the hyperchemotacic response to 0.1 ng/ml PDGF-BB in a dose-dependent way”.

For Hirudin, the “effect … of Cyr61” value [1] was “failed to abolish”, the “effect on enhanced migration response (hyperchemotaxis) transduced by FVIIa/TF” value ([2]; 100 nM FVIIa) was “Neither addition of 5 U/ml Hirudin, a specific thrombin inhibitor, had any effect” and the “effect on migration of fibroblasts in response to PDGF without FVIIa” value [2] was “did not influence”.

thrombin was tested, and the “induction of Cyr61 expression (data not shown)” value ([1]; conditions not given) was “could also induce the expression of Cyr61”.

In the case of `COc1ccc2c(c1)CC[C@@H]1[C@@H]2CC[C@]2(C)[C@@H](NCCCCCCN3C(=O)CCC3=O)CC[C@@H]12` [U73343], the “effect on FVIIa/TF-mediated chemotactic response to PDGF-BB” value [2, 4] is reported as “No effect on chemotaxis”.

With `C[C@@H]1C[C@@H]([C@H](O)CC2CC(=O)NC(=O)C2)C(=O)[C@@H](C)C1` [cycloheximide] the “effect … of Cyr61” value [1] was “not blocked; also recorded: markedly increased the VIIa-induced Cyr61 mRNA steady-state levels”.

“TAP: Recombinant Tick anticoagulant peptide, specifically blocks the active site of FXa (YNRLCIKPRDWIDECDSNEGGERAYFRNGKGGCDSFWICPEDHTGADYYSSYRDCFNACI; UniProt P17726 1-60, looked up)” was tested, and the “effect … of Cyr61” value [1] was “failed to abolish”, the “effect on enhanced migration response (hyperchemotaxis) transduced by FVIIa/TF” value ([2]; 100 nM FVIIa) was “not blocked” and the “effect on migration of fibroblasts in response to PDGF without FVIIa” value [2] was “did not influence”.

B1: PDGF-BB: platelet-derived growth factor BB, chemotactic factor for human fibroblasts (protein, UniProt P01127 82-190, looked up)
Platelet-derived growth …: SLGSLTIAEPAMIAECKTRTEVFEISRRLIDRTNANFLVWPPCVEVQRCSGCCNNRNVQCRPTQVQLRPVQVRKIEIVRKKPIFKKATVTLEDHLACKCETVAAARPVT
For B1, the “kinetics of Cyr61 expression upon stimulation” value ([1]; PDGF-BB 10 ng/ml) was “expressed only transiently”, the “time to full repression of Cyr61 after addition of stimuli” value ([1]; PDGF-BB 10 ng/ml) was 2 h and the “tyrosine phosphorylation of PLC-γ1, agent alone” value [3] was “significant increase in tyrosine phosphorylation of PLC-γ1”.
